Measured values from patent EP0380084A2, “Method for the inhibition of cell-cell and cell substratum interactions by the blocking of carbohydrate-carbohydrate interactions” (The Biomembrane Institute, priority 1989, dated 1990).
Entries after “also recorded” stand apart in the source; their conditions may differ.

Key:
[1] = tested on: mouse teratocarcinoma F9 cells; assay: F9 cell aggregation assay (microscopy and Coulter Counter count of single cells); assay type: cell-based; conditions: for numbers of free (i.e., nonaggregated) cells: Coulter Counter, semiquantitative (Figure 1, panel e), 2 mM LFP II or LFP III; for self-aggregation of F9 cells: PBS with Ca2+ and Mg2+, 50 mM EDTA, 2 mM LFP II, 2 mM LFP III (Figure 1, panels a-d)
Method: More specifically, mouse teratocarcinoma F9 cells (Bernstine et al., Proc. Natl. Acad. Sci. USA 70:3899-3903, 1973) were grown on gelatin-coated plates in Dulbecco's modified Eagle's medium (DME) containing 4.5 g/l glucose and supplemented with 10% fetal calf serum (FCS) (v/v). The plates were prepared by incubating 0.01% gelatin in water for 30 min.
F9 cells grown to confluency on gelatin-coated plates were harvested using standard trypsin/EDTA solution and washed in DME containing 10% FCS. Next, the cells were carefully resuspended in a PBS solution (containing 0.9 mM Ca²⁺, 0.5 mM Mg²⁺ and 0.1 mM Mn²⁺) and supplemented with 0.1% FCS. The cell samples were mixed carefully before pipetting, and both manual counting and counting with a Coulter Counter (Model ZBI, Coulter Electronics Inc., Hialeah, Fla.) were performed. Adjustments of the aperture on the Coulter Counter were made in order to correlate with the manual counting of the single cells, excluding aggregated cells. For aggregation assays, cells were adjusted to a concentration of about 2.6 x 10⁷/ml. After 1 hr at 37°C, 50 µl aliquots were mixed with 50 µl of ethylenediaminetetraacetic acid (EDTA), LFP II, or LFP III solutions, and cells were incubated for an additional 15 min at 37°C. […] Before measurements on the Coulter Counter, the 100 µl volume sample was diluted to 10 ml and mixed carefully. In experiments were photomicrographs of cells were taken, approximately 0.8 x 10⁶ cells were placed in different PBS solutions (final volume 100 µl) in small Petri dishes. The cell suspension was then covered by mineral oil and incubated at 37°C for 30-60 min, and the process of cell aggregation was observed under the microscope.
The degree of F9 cell aggregation was semiquantitatively expressed by numbers of free (i.e., nonaggregated) cells (panel e), as determined by Coulter Counter with an appropriate aperture setting.

[2] = tested on: mouse T cell lymphoma L5178 AV27 cell line to B16 cells; conditions: 10 mM EDTA; 3H remaining after washing (Figure 2, panel c)
Method: Mouse B16 melanoma cells (which express a high level of GM₃) were purchased from American Type Culture Collection (Rockville, MD). Expression of GM₃ by B16 cells was defined by MAb DH2 (Dohi et al., Cancer Res. 48:5680-5685, 1988). Mouse T cell lymphoma line L5178 AA12 (which express a high level of Gg3, defined by MAb 2D4; Young et al., J. Exp. Med. 150:1008-1019, 1979) was cloned from 1C1 (Young et al., J. Immunol. 126:1-6, 1981). […] All cells were grown in RPMI 1640 containing 10% FCS.
B16 cells (5x10⁴/ml), highly expressing GM₃, were grown on 24-well plates (Falcon, Oxnard, CA) for 24 hrs in DME. The majority of adherent cells were washed with serum-free medium. AA12 cells (Gg3 expressors) or AV27 cells (Gg3 non-expressors) were grown in DME containing 2% FCS, 1 g/l glucose, and 50 µCi ³H-GlcNH₂ for 24 hrs. The labeled AA12 (71,000 cpm/10⁵ cells) and AV27 (33,000 cpm/10⁵ cells) were then collected by centrifugation, suspended in DME containing 2% FCS and 1 g/l glucose, and the cell population adjusted to 6x10⁵/ml. This suspension (1 ml) was added to each well of a Falcon plate on which B16 melanoma cells were grown as adherent culture. The incubated plates were then washed 2x with serum-free fresh medium. L5178 lymphoma cells not adhering to B16 cells were washed out. The remaining cells in each plate were trypsinized, collected, and counted. […]

[3] = tested on: mouse T cell lymphoma L5178 AA12 cell line (high expressor of Gg3) to mouse B16 melanoma cell line (high expressor of GM₃); assay: Adhesion of 3H-labeled L5178 AA12 lymphoma cells to B16 melanoma cell layer; assay type: cell-based; conditions: 10 mM EDTA, 5 mM sialyllactose, DH2 2 µg/ml, 2D4 5 µg/ml; 3H remaining after washing (Figure 2, panel c)
Method: Mouse B16 melanoma cells (which express a high level of GM₃) were purchased from American Type Culture Collection (Rockville, MD).
B16 cells (5x10⁴/ml), highly expressing GM₃, were grown on 24-well plates (Falcon, Oxnard, CA) for 24 hrs in DME. The majority of adherent cells were washed with serum-free medium. AA12 cells (Gg3 expressors) or AV27 cells (Gg3 non-expressors) were grown in DME containing 2% FCS, 1 g/l glucose, and 50 µCi ³H-GlcNH₂ for 24 hrs. The labeled AA12 (71,000 cpm/10⁵ cells) and AV27 (33,000 cpm/10⁵ cells) were then collected by centrifugation, suspended in DME containing 2% FCS and 1 g/l glucose, and the cell population adjusted to 6x10⁵/ml. This suspension (1 ml) was added to each well of a Falcon plate on which B16 melanoma cells were grown as adherent culture. The incubated plates were then washed 2x with serum-free fresh medium. L5178 lymphoma cells not adhering to B16 cells were washed out. The remaining cells in each plate were trypsinized, collected, and counted.
B16 melanoma cells grown in 24-well plates and L5178 lymphoma cells were treated respectively with DH2 solution (2 µg/ml) and 2D4 solution (5 µg/ml), left for 30 min at room temperature, washed with serum-­free fresh DME, and incubated with lymphoma cell suspension and melanoma cell layer for 5 hrs.

Le^x glycolipid = assay: Interaction of Le^x liposomes with Le^x glycolipid coated on a plastic surface; assay type: binding
Method: A representative example of a carbohydrate-carbohydrate interaction is the recognition of Le^x(Galβ1 → 4[Fucα1 → 3]GlcNacβ1 → R) by Le^x per se. Le^x pentaosyl glycolipid (III³FucnLc₄) was prepared from human colonic adenocarcinoma.

Gg3/GM₃ interaction = conditions: antibody: pretreatment of the Gg3-coated solid phase
Le^x liposomes = assay: Self-aggregation of Le^x liposomes; assay type: binding
Method: A representative example of a carbohydrate-carbohydrate interaction is the recognition of Le^x(Galβ1 → 4[Fucα1 → 3]GlcNacβ1 → R) by Le^x per se. Le^x pentaosyl glycolipid (III³FucnLc₄) was prepared from human colonic adenocarcinoma. Within the present invention, Le^x is shown to be the structure recognizing Le^x. […] Fourth, the diffusability of tritium-labeled LFP III (from the lower to the upper Boyden chamber through a semipermeable membrane) was inhibited by Le^x liposomes. In addition, the Le^x-Le^x interaction was highly dependent on bivalent cations (Ca²⁺, Mg²⁺) and was inhibited by EDTA.

Molecule	numbers of free (i.e., nonaggregated) cells [1]	self-aggregation of F9 cells [1]	Adhesion of AV27 cells to B16 cells [2]	Adhesion of AA12 cells on B16 melanoma [3]	Le^x-Le^x interaction (Le^x glycolipid; dependent on bivalent cations (Ca2+, Mg2+))	interaction of Gg3-coated solid phase with GM₃-containing liposomes (Gg3/GM₃ interaction)	self-aggregation of Le^x liposomes (Le^x liposomes)	interaction of Le^x liposomes with immobilized Le^x glycolipid (Le^x glycolipid)
CC(=O)N[C@H]1[C@H](O[C@H]2[C@@H](O)[C@@H](CO)O[C@@H](O[C@H]3[C@H](O)[C@@H](O)C(O)O[C@@H]3CO)[C@@H]2O)O[C@H](CO)[C@@H](O[C@@H]2O[C@@H](C)[C@@H](O)[C@@H](O)[C@@H]2O)[C@@H]1O[C@@H]1O[C@H](CO)[C@H](O)[C@H](O)[C@H]1O (stereo partly drawn) [LFP II]	much less	aggregation of F9 cells; also recorded: not by LFP II	–	–	–	–	–	–
O=C(O)CN(CCN(CC(=O)O)CC(=O)O)CC(=O)O [EDTA, ethylenediaminetetraacetic acid]	–	aggregation did not occur; also recorded: inhibited	greatly suppressed	greatly suppressed	inhibited	inhibited	–	–
CC(=O)NC1C(OC2C(O)C(CO)OC(OC3C(CO)OC(O)C(O)C3O)C2O)OC(CO)C(OC2OC(CO)C(O)C(O)C2O)C1OC1OC(C)C(O)C(O)C1O (stereo not drawn) [LFP III]	increased greatly	aggregation was inhibited	–	–	–	–	specifically inhibited	specifically inhibited
sialyllactose	–	–	–	markedly inhibited	–	–	–	–
